Where a name gives a salt, the structure may show the parent alone.
SMILES	flash point
COC(C)=O [Methyl acetate]	-9.00 °C
CO [Methyl alcohol]	12.00 °C
CCCCC(C)=O [Methyl butyl ketone]	35.00 °C
COC [Methyl ether]	-41.00 °C
COC=O [Methyl formate]	-19.00 °C
COC(=O)c1ccccc1O [Methyl salicylate]	101.00 °C
C=COC [Methyl vinyl ether]	-51.00 °C
CN [Monomethylamine]	-10.00 °C
CCN(CC)c1ccccc1 [N,N-Diethylaniline ]	85.00 °C
CCN1CCOCC1 [N-Ethylmorpholine]	32.00 °C
O=[N+]([O-])c1ccccc1 [Nitrobenzene]	88.00 °C
CC[N+](=O)[O-] [Nitroethane]	38.00 °C
CCCCCCCCCc1ccccc1O [Nonyl phenol]	141.00 °C
CCCCCCCC/C=C\CCCCCCCC(=O)O [Oleic acid]	189.00 °C
CC(=O)Oc1ccccc1 [Phenyl acetate]	80.00 °C
c1ccc(Oc2ccccc2)cc1 [Phenyl ether]	96.00 °C
O=C1OC(=O)c2ccccc21 [Phthalic anhydride]	151.00 °C
C1CCNCC1 [Piperidine]	16.00 °C
C#CCO [Propargyl alcohol]	36.00 °C
CC1COC(=O)O1 (stereo not given) [Propylene carbonate]	135.00 °C

SMILES	flash point
C=CC [Propylene]	-108.00 °C
O=Cc1ccccc1O [Salicylaldehyde]	78.00 °C
C=Cc1ccccc1 [Styrene]	31.00 °C
N#CCCC#N [Succinonitrile]	132.00 °C
CCCCN(CCCC)CCCC [Tri-n-butyl amine]	86.00 °C
OCCOCCOCCO [Triethylene glycol]	177.00 °C
NCCNCCNCCN [Triethylene-tetramine]	135.00 °C
CCCN(CCC)CCC [Tripropylamine]	41.00 °C
C=COC(C)=O [Vinyl acetate]	-8.00 °C
C=C(Cl)Cl [Vinylidene chloride]	-15.00 °C
O=[N+]([O-])c1cccc2ccccc12 [alpha-Nitronaphthalene]	164.00 °C
CC(=O)OCCC(C)C [iso-Amyl acetate]	23.00 °C
CC(C)CCOC=O [iso-Amyl formate]	26.00 °C
CC(C)Cc1ccccc1 [iso-Butyl benzene]	52.00 °C
CCC(C)C [iso-Pentane]	-51.00 °C
C=C(C)OC(C)=O [iso-Propenyl acetate]	16.00 °C
CC(=O)OC(C)C [iso-Propyl acetate]	4.00 °C
CC(C)OC(=O)c1ccccc1 [iso-Propyl benzoate]	99.00 °C
Cc1cccc(O)c1 [m-Cresol]	94.00 °C
CCCCOC(C)=O [n-Butyl acetate]	27.00 °C

SMILES	flash point
CCCCc1ccccc1 [n-Butyl benzene]	71.00 °C
CCCCCl [n-Butyl chloride]	7.00 °C
CCCC(=O)O [n-Butyric acid]	66.00 °C
CCCC(=O)OC(=O)CCC [n-Butyric anhydride]	88.00 °C
CCCC#N [n-Butyronitrile]	26.00 °C
CCNc1ccccc1 [n-Ethyl aniline]	85.00 °C
CCCCCCO [n-Hexanol]	60.00 °C
CCCO [n-Propyl alcohol]	15.00 °C
Cc1ccccc1O [o-Cresol]	81.00 °C
Clc1ccccc1Cl [o-Dichlorobenzene]	66.00 °C
O=[N+]([O-])c1ccccc1-c1ccccc1 [o-Nitrobiphenyl]	143.00 °C
Oc1ccccc1-c1ccccc1 [o-Phenyl phenol]	124.00 °C
Cc1ccccc1C [o-Xylene]	32.00 °C
Oc1ccc(Cl)cc1 [p-Chlorophenol]	121.00 °C
Cc1ccc(C(C)C)cc1 [p-Cymene]	47.00 °C
C=C(C)C1CC=C(C)CC1 (stereo not given) [p-Mentha-1,8-diene]	45.00 °C
Cc1ccc([N+](=O)[O-])cc1 [p-Nitrotoluene]	106.00 °C
Nc1ccc(N)cc1 [p-Phenylenediamine]	156.00 °C
CCC(C)OC(C)=O (stereo not given) [sec-Butyl acetate]	31.00 °C
CC(C)(C)OOC(=O)c1ccccc1 [tert-Butyl perbenzoate]	88.00 °C

remark: another data set of the same source

flash point	SMILES
68.0 °C	Cc1ccc(C)c(C)c1C [1,2,3,4-TETRAMETHYLBENZENE]
74.0 °C	Cc1ccc(C)c(C)c1C [1,2,3,4-Tetramethylbenzene]
44.0 °C	Cc1cccc(C)c1C [1,2,3-TRIMETHYLBENZENE]
51.0 °C	Cc1cccc(C)c1C [1,2,3-Trimethylbenzene]
55 °C	Cc1cc(C)c(C)cc1C [1,2,4,5-TETRAMETHYLBENZENE]
73.0 °C	Cc1cc(C)c(C)cc1C [1,2,4,5-Tetramethylbenzene]
0.6 °C	COCC(C)OC (stereo not given) [1,2-DIMETHOXYPROPANE]
-0.0 °C	COCC(C)OC (stereo not given) [1,2-Dimethoxypropane]
56 °C	CCc1cccc(CC)c1 [1,3-Diethylbenzene]
-55.9 °C	C=CC(C)C [1-Butene, 3-methyl-]
132.0 °C	C=CCCCCCCCCCCCCCC [1-HEXADECENE]
27 °C	CCCCCC=O [1-HEXANAL]
-6.0 °C	C=C(C)CCCC [1-Hexene, 2-methyl-]
-6.0 °C	C=CC(C)CCC (stereo not given) [1-Hexene, 3-methyl-]
22 °C	C=CCCCCCCC [1-NONENE]
26.0 °C	C=CCCCCCCC [1-Nonene]
84 °C	CCCCCCCCO [1-OCTANOL]
8 °C	C=CCCCCCC [1-OCTENE]
148.0 °C	C=CCCCCCCCCCCCCCCCC [1-Octadecene]
86.6 °C	CCCCCCCCO [1-Octanol]

flash point	SMILES
11.5 °C	C=CCCCCCC [1-Octene]
58.0 °C	CCC(C)CCO (stereo not given) [1-Pentanol, 3-methyl-]
83.0 °C	CCCCCCc1ccccc1 [1-Phenylhexane]
143 °C	CCCCCCCCCCCCCCO [1-TETRADECANOL]
148.0 °C	CCCCCCCCCCCCCCO [1-Tetradecanol]
95.0 °C	Cc1cccc(O)c1C [2,3-Dimethylphenol]
-16.0 °C	CC(C)=C(C)C [2-Butene, 2,3-dimethyl-]
-34.9 °C	CC(C)Cl [2-Chloropropane]
57 °C	CCC(CC)CO [2-ETHYL-1-BUTANOL]
59.0 °C	CCCCCC(C)O (stereo not given) [2-Heptanol]
35.0 °C	CC(=O)CCC(C)C [2-Hexanone, 5-methyl-]
64.0 °C	CCCCCCCC(C)=O [2-NONANONE]
72.4 °C	CCCCCCCC(C)=O [2-Nonanone]
51.0 °C	CCCCCCC(C)=O [2-OCTANONE]
56.0 °C	CCCCCCC(C)=O [2-Octanone]
12.0 °C	CCC(C)C(C)=O (stereo not given) [2-Pentanone, 3-methyl-]
28 °C	CCC(C)CC(C)(C)CC (stereo not given) [3,3,5-TRIMETHYLHEPTANE]
31 °C	CCC(C)CC(C)(C)CC (stereo not given) [3,3,5-Trimethylheptane]
37.0 °C	CCCCC(=O)CC [3-Heptanone]
-1.0 °C	CC(=O)C(C)C [3-Methyl-2-butanone]

flash point	SMILES
66.0 °C	CCCCCCC(=O)CC [3-Nonanone]
13.0 °C	CCC(=O)C(C)C [3-Pentanone, 2-methyl-]
7.0 °C	CCC(=O)CC [3-Pentanone]
48.0 °C	CCCC(=O)CCC [4-HEPTANONE]
34.0 °C	CCCC(=O)CCC [4-Heptanone]
65.0 °C	CCCCC(=O)CCCC [5-Nonanone]
83.0 °C	CCCCCCCCOC(C)=O [Acetic acid octyl ester]
97.5 °C	CCCCCCCc1ccccc1 [Benzene, heptyl-]
66.0 °C	CCCCCc1ccccc1 [Benzene, pentyl-]
50.0 °C	CCCCOC(=O)CCC [Butanoic acid, butyl ester]
-11.0 °C	CCCC=O [Butyraldehyde]
11.2 °C	C[C@H]1CC[C@@H](C)CC1 [Cyclohexane, 1,4-dimethyl-, cis-]
18.0 °C	CCC1CCCCC1 [Cyclohexane, ethyl-]
49.8 °C	CCCCCCCCCC [Decane]
104.0 °C	CCCCCCCCCCO [Decyl alcohol]
13.0 °C	CCOC(C)OCC [Ethane, 1,1-diethoxy-]
19.0 °C	CCCCCC(C)(C)C [Heptane, 2,2-dimethyl-]
6.0 °C	CCCCC(C)CC (stereo not given) [Heptane, 3-methyl-]
6.0 °C	CCCC(C)CCC [Heptane, 4-methyl-]

SMILES	flash point
NCCCN [1,3-Diaminopropane]	49.0 °C
CCCCOCC(C)O (stereo not given) [1-Butoxy-2-propanol]	59.0 °C
CCCO [1-PROPANOL]	18 °C
CCCCC(C)=O [2-Hexanone]	23.0 °C
C=CCOC(C)=O [ALLYL ACETATE]	22.2 °C
CCCC#N [Butanenitrile]	18.0 °C
CCCCOC(C)=O [Butyl acetate]	25.0 °C
CCCC(=O)O [Butyric acid]	72.0 °C
NC1CCCCC1 [Cyclohexanamine]	26.5 °C
c1ccc(Oc2ccccc2)cc1 [Diphenyl ether]	115.0 °C
CC(Cl)Cl [Ethane, 1,1-dichloro-]	-10.0 °C

Reference: a flash point compilation (Sun et al. 2020)
